The values below come from patent US10888720B2, “Gentiopicroside free gentiana extract” (DSM IP ASSETS B.V., priority 2015, dated 2021).

The subject of data set [1] is DNA. The note with it: K. Mustafayeva et al., J. Nat. Prod. 2010, 73, 99-103; cited from earlier work.
For data set [2], the system named is Normal human fibroblasts (NHF). As to the kind of experiment: Hyaluronan production (Hyaluronan Assay Kit). Type of data set: cell-based. The note with it: TGFbeta1 10 ng/ml, positive control. Here is the method:
Gentiana extract (Gentiana acaulis/Gentiana septemfida, 25/75 m/m) was used. Normal human fibroblasts (NHF) P2+1 were seeded at 5000 cell/well in 96 well cell culture plates (Nunclon) in MEM 10% FCS (Pan Biotech). After three days of growth, Gentiana extract solution was added in medium without FCS and incubated the cells for an additional three days. Secreted hyaluronan in the growth medium was measured using a Hyaluronan Assay Kit (K-1200, Echelon, Salt Lake City, Utah).

Take `C=C[C@@H]1C2=CCOC(=O)C2=CO[C@H]1O[C@@H]1O[C@H](CO)[C@@H](O)[C@H](O)[C@H]1O` [gentiopicroside]: the genotoxic effects reported result in data set [1] is “DNA damaging, mutagenic, and clastogenic effects”. “TGFbeta1: TGFbeta1 (10 ng/ml), served as positive control for hyaluronan production”: in data set [2], the “stimulation of hyaluronan production compared to untreated cells” value was found to be 45.6±1.1%.
